# Test results published in patent publication US20230346791A1, “ATR INHIBITORS FOR THE TREATMENT OF CANCER” (AstraZeneca AB, priority 2020, published 2023).
# Read-outs that look alike come from different tables or passages of the source.
# Conditions: for dose-limiting toxicity (DLT): cohort of n=6 evaluable patients
# Procedure: Overall Study Design: The study consisted of two parts, each evaluating the safety and tolerability of AZD6738 when given in combination with paclitaxel. An oral formulation of AZD6738 was used. The first part (Part A) was in combination with paclitaxel; the starting dose of 40 mg AZD6738 OD was escalated to reach a maximum tolerated dose in patients with advanced solid malignancies, as defined by dose-limiting toxicity. […] We made the number and doses of these cohorts flexible so that we could make adjustment as the PK data emerged. […] Dose escalations were conducted in each cohort independently; however, number and doses of the cohorts were to be subject to change as the PK data emerged.
# Part A: We conducted a phase I trial for determining maximal tolerate dose (MTD) of AZD6738 when given in combination with fixed dose of paclitaxel in patients with refractory cancer. We used a rolling 6 design in this PART A. Treatment schedule was as follows. Start regimen (every 4 weeks): 40 mg OD dosing of AZD6738, 3 weeks on/ 1 week off; paclitaxel 80 mg/m2 on day 1, 8, 15 This part was in combination with paclitaxel of standard dose; starting dose of 40 mg AZD6738 OD was escalated to reach a maximum tolerated dose in metastatic solid cancer patients. Each cycle was composed of 4 weeks. The decision to dose escalate was to be made upon the assessment of the safety and tolerability data collected up until the time of study drug administration on Cycle 2, Day 1. This DLT assessment period was selected as the major toxicities leading to cessation of dose escalation in such studies (haematological, gastrointestinal, liver enzymes) were anticipated to present within this duration. Doses and/or schedules of AZD6738 were to be defined by the SRC. The cohort size of at least 3 and up to 6 patients (‘rolling six design’) was employed to improve the rate of accrual of patients to cohorts close to the presumed therapeutic dose by reducing the need for late replacement of patients who become non-evaluable during the DLT assessment period, whilst not compromising collection of safety data. […]
compound,measurement,setting,value
"C[C@@H]1COCCN1c1cc(C2([S@](C)(=N)=O)CC2)nc(-c2cc[nH]c3nccc2-3)n1 [AZD6738, 4-{4-[(3R)-3-methylmorpholin-4-yl]-6-[1-((R)-S-methylsulfonimidoyl)cyclopropyl]pyrimidin-2-yl}-1H-pyrrolo[2,3-b]pyridine]",dose-limiting toxicity (DLT),AZD6738 160 mg BD days 1-14 with paclitaxel,One dose-limiting toxicity (DLT) of neutropenic fever
same,dose-limiting toxicity (DLT),AZD6738 240 mg BD days 1-14 with paclitaxel,One dose-limiting toxicity (DLT) of neutropenic fever
same,maximum tolerated dose of AZD6738,"days 1-14 of 28-day cycle, with paclitaxel 80 mg/m2, per protocol",240 mg BID
